# Entries after “also recorded” stand apart in the source; their conditions may differ.
# Experiments:
# Type in all cases: cell-based
# [1] = system: HDFa, adult human dermal fibroblasts; test: Cell migration into calibrated acellular gap (culture inserts, image comparison); details: 24 h
# Procedure: The dilution range prepared for evaluating migration was identical to the range for evaluating kinetics with the exclusion of the 0.3 μg/ml concentration. The adult HDFs used were seeded in the presence of previously sterilised culture inserts which allowed the creation of calibrated acellular regions. 100,000 HDFa in 600 μl and 30,000 cells in 150 μl were respectively added outside and inside the inserts, in DMEM+2.5% FCS. After an incubation time of 5 h at 37° C., the inserts were removed and the wells washed twice with PBS 1× to eliminate every cell which had not adhered. The queuine molecule was then added at 30, 10, 3 or 1 μg/ml in DMEM 2.5% FCS, and an equivalent range of methanol was also carried out, two wells per condition. The wells were photographed at t=0 h and the plates then incubated for 24 h. The cells were fixed with paraformaldehyde before taking photos at 24 h. The images were analysed using ImageJ software, to improve the contrast thereof. All fields were examined and the two most representative of each condition were chosen for each time indication. Analysis was performed by comparison with the control. The adult HDFs were seeded in the presence of previously sterilised culture inserts, to create calibrated acellular regions in a confluent cell mat. The cells tend to fill the gap created by migrating from the edges to close the gap. After 5 h incubation at 37° C., the inserts were removed and the wells washed twice in PBS 1× to eliminate every non-adhering cell. Queuine was then added at 30, 10, 3 or 1 μg/ml in DMEM 2.5% FCS and an equivalent range of methanol was also prepared, two wells per condition. Photos of the wells were taken at t=0 h. The cells were cultured 24 h at 37° C., before being fixed in paraformaldehyde. Photos were taken at t=24 h. The photos were compared with each other to assess the difference in cell migration into the gap between the different assayed conditions.
# [2] = system: HDFa, adult human dermal fibroblasts; test: Cytotoxicity / cell viability, MTT assay; details: for Mean - blank (cell viability OD) / OD mean values (cell viability) / Mean OD values (cell viability): MTT; for OD mean values (cell viability) / Mean OD values (cell viability): OD 570 nm; for OD mean values (cell viability): DMEM 2.5% FCS
# Procedure: (§1) The stock solution of queuine was prepared with 15 mg/ml methanol and the dilutions were obtained in DMEM (Dulbecco's Modified […]) in the presence of variable concentrations of foetal calf serum (FCS) (DMEM+2.5% FCS+antibiotics (penicillin/streptomycin)+glutamine): depleted medium with 2.5% FCS for the viability, proliferation and cell migration experiments.
# The dilution range prepared for the toxicity/viability assay was the following:
# (§2) Cell type: HDFa, adult human dermal fibroblasts, person, used between passage 4 and passage 6.
# (§3) The adult HDFs used were seeded to a proportion of 5×10^3 cells/well in 96-well plates (passage 4) in 200 μl culture medium without FCS (supplemented DMEM+0% FCS). 24 h after seeding, the culture medium was changed and the different dilutions of the product or its carrier (methanol) were added at 200 μl per well, with 3 wells per culture condition.
# Cell proliferation was evaluated using a colorimetric assay (MTT assay) after culture times of 1, 2 and 3 days. This assay is based on reduction of the yellow tetrazolium salt (MTT) [3-(4,5-dimethylthiazol bromide] to a blue-purple formazan product by the mitochondrial NADPH reductases of the cells, provided they are living. The crystals were then dissolved in 100% ethanol—DMSO mixture (v/v). Colouring of the supernatant, proportional to the number of living cells, was measured by optical density (OD) read-out on a spectrophotometer at a wavelength of 570 nm. The assay was conducted at D1, D2 and D3 (D0 corresponding to the time of addition of the solutions to be assayed).
# The mean OD values of the triplicates are given on a graph for each kinetic time. Standard deviations are indicated.
# [3] = system: HDFa, adult human dermal fibroblasts; test: Cell proliferation, BrdU assay; details: for Mean ODs (BrdU cell proliferation): OD 450 nm
# Procedure: as §1
# This first assay allowed fine-tuning of the applied concentration range. The dilution range for the assay of cell proliferation kinetics was as follows:
# as §2, §3
# Cell proliferation was evaluated using an assay of ELISA type (BrdU assay, Bromodeoxyuridine) after 1, 2 and 3 days of culture.
# BrdU is a synthetic nucleoside and an analogue of thymidine, which can be recognised by an anti-BrdU antibody. It is incorporated during DNA replication of the proliferating cells. The anti-BrdU antibody is coupled to an enzyme which, in the presence of its substrate, will degrade the latter. Detection of BrdU is therefore carried out by colorimetric enzymatic assay.
# Degradation of the enzyme substrate will stain the supernatant proportional to the amount of incorporated BrdU. Measurement is then performed by read-out of optical density (OD) using a spectrophotometer at a wavelength of 450 nm. The assay was conducted at D1, D2 and D3 (D0 corresponding to the time of addition of the solutions to be assayed).
smiles,measurement,setting,value
"Nc1nc2[nH]cc(CN[C@H]3C=C[C@H](O)[C@@H]3O)c2c(=O)[nH]1 [Queuine, 2-amino-5-((((1s,4s,5r)-4,5-dihydroxy-2-cyclopenten-1-yl)amino)methyl)-1,7-dihydro-4h-pyrrolo(2,3-d)pyrimidin-4-one]",migration compared with 2.5% FCS control,[1]; 10 μg/ml and 30 μg/ml in 2.5% FCS,better migration than in 2.5% FCS
same,effect on migration of the fibroblasts,[1]; 10 μg/ml,has an effect on migration of the fibroblasts; also recorded: has an effect on the migration of adult HDFs
same,gap closure (observation of photos),[1]; 30 μg/ml in 2.5% FCS,the cells of the two edges meet in the centre of the gap
same,effect on migration of the fibroblasts,[1]; 30 μg/ml,confirmed
same,migration compared with positive 10% FCS control,[1]; 10 and 30 μg/ml,equivalent to that obtained with the positive 10% FCS control
same,Mean - blank (cell viability OD),"[2]; 0.1 μg/ml, 24 h contact time",0.133
same,OD mean values (cell viability),"[2]; 0.1 μg/ml, 24 h contact time",0.228
same,Mean - blank (cell viability OD),"[2]; 0.1 μg/ml, 48 h contact time",0.219
same,Mean OD values (cell viability),"[2]; 0.1 μg/ml, 48 h contact time",0.304
same,Mean - blank (cell viability OD),"[2]; 0.1 μg/ml, 72 h contact time",0.223
same,Mean OD values (cell viability),"[2]; 0.1 μg/ml, 72 h contact time",0.341
same,Mean - blank (cell viability OD),"[2]; 1 μg/ml, 24 h contact time",0.155
same,OD mean values (cell viability),"[2]; 1 μg/ml, 24 h contact time",0.250
same,Mean - blank (cell viability OD),"[2]; 1 μg/ml, 48 h contact time",0.246
same,Mean OD values (cell viability),"[2]; 1 μg/ml, 48 h contact time",0.331
same,Mean - blank (cell viability OD),"[2]; 1 μg/ml, 72 h contact time",0.244
same,Mean OD values (cell viability),"[2]; 1 μg/ml, 72 h contact time",0.362
same,Mean - blank (cell viability OD),"[2]; 10 μg/ml, 24 h contact time",0.151
same,OD mean values (cell viability),"[2]; 10 μg/ml, 24 h contact time",0.246
same,Mean - blank (cell viability OD),"[2]; 10 μg/ml, 48 h contact time",0.243
same,Mean OD values (cell viability),"[2]; 10 μg/ml, 48 h contact time",0.328
same,Mean - blank (cell viability OD),"[2]; 10 μg/ml, 72 h contact time",0.277
same,Mean OD values (cell viability),"[2]; 10 μg/ml, 72 h contact time",0.395
same,Mean - blank (cell viability OD),"[2]; 100 μg/ml, 24 h contact time",0.138
same,OD mean values (cell viability),"[2]; 100 μg/ml, 24 h contact time",0.233
same,Mean - blank (cell viability OD),"[2]; 100 μg/ml, 48 h contact time",0.188
same,Mean OD values (cell viability),"[2]; 100 μg/ml, 48 h contact time",0.273
same,Mean - blank (cell viability OD),"[2]; 100 μg/ml, 72 h contact time",0.154
same,Mean OD values (cell viability),"[2]; 100 μg/ml, 72 h contact time",0.272
same,cytotoxic effect,"[2]; 100 μg/ml, at 48 h",exhibited a cytotoxic effect
same,cytotoxic effect,[2]; concentrations below 100 μg/ml,do not exhibit any cytotoxic effect; also recorded: did not display any cytotoxic effect
same,Mean - blank (BrdU OD),"[3]; 0.3 μg/ml, 24 h contact time",1.181
same,Mean ODs (BrdU cell proliferation),"[3]; 0.3 μg/ml, 24 h contact time, DMEM 2.5% FCS",1.312
same,Mean - blank (BrdU OD),"[3]; 0.3 μg/ml, 48 h contact time",0.677
same,Mean ODs (BrdU cell proliferation),"[3]; 0.3 μg/ml, 48 h contact time, shortened substrate incubation",0.800
same,Mean - blank (BrdU OD),"[3]; 0.3 μg/ml, 72 h contact time",0.416
same,Mean ODs (BrdU cell proliferation),"[3]; 0.3 μg/ml, 72 h contact time, shortened substrate incubation",0.586
same,Mean - blank (BrdU OD),"[3]; 1 μg/ml, 24 h contact time",1.197
same,Mean ODs (BrdU cell proliferation),"[3]; 1 μg/ml, 24 h contact time, DMEM 2.5% FCS",1.328
same,Mean - blank (BrdU OD),"[3]; 1 μg/ml, 48 h contact time",0.803
same,Mean ODs (BrdU cell proliferation),"[3]; 1 μg/ml, 48 h contact time, shortened substrate incubation",0.926
same,Mean - blank (BrdU OD),"[3]; 1 μg/ml, 72 h contact time",0.378
same,Mean ODs (BrdU cell proliferation),"[3]; 1 μg/ml, 72 h contact time, shortened substrate incubation",0.548
same,Mean - blank (BrdU OD),"[3]; 3 μg/ml, 24 h contact time",.391
same,Mean ODs (BrdU cell proliferation),"[3]; 3 μg/ml, 24 h contact time, DMEM 2.5% FCS",1.522
same,Mean - blank (BrdU OD),"[3]; 3 μg/ml, 48 h contact time",0.793
same,Mean ODs (BrdU cell proliferation),"[3]; 3 μg/ml, 48 h contact time, shortened substrate incubation",0.915
same,Mean - blank (BrdU OD),"[3]; 3 μg/ml, 72 h contact time",0.511
same,Mean ODs (BrdU cell proliferation),"[3]; 3 μg/ml, 72 h contact time, shortened substrate incubation",0.681
same,Mean - blank (BrdU OD),"[3]; 10 μg/ml, 24 h contact time",1.494
same,Mean ODs (BrdU cell proliferation),"[3]; 10 μg/ml, 24 h contact time, DMEM 2.5% FCS",1.625
same,Mean - blank (BrdU OD),"[3]; 10 μg/ml, 48 h contact time",0.943
same,Mean ODs (BrdU cell proliferation),"[3]; 10 μg/ml, 48 h contact time, shortened substrate incubation",1.066
same,Mean - blank (BrdU OD),"[3]; 10 μg/ml, 72 h contact time",0.538
same,Mean ODs (BrdU cell proliferation),"[3]; 10 μg/ml, 72 h contact time, shortened substrate incubation",0.708
same,Mean - blank (BrdU OD),"[3]; 30 μg/ml, 24 h contact time",1.502
same,Mean ODs (BrdU cell proliferation),"[3]; 30 μg/ml, 24 h contact time, DMEM 2.5% FCS",1.634
same,Mean - blank (BrdU OD),"[3]; 30 μg/ml, 48 h contact time",1.026
same,Mean ODs (BrdU cell proliferation),"[3]; 30 μg/ml, 48 h contact time, shortened substrate incubation",1.149
same,Mean - blank (BrdU OD),"[3]; 30 μg/ml, 72 h contact time",0.787
same,Mean ODs (BrdU cell proliferation),"[3]; 30 μg/ml, 72 h contact time, shortened substrate incubation",0.958
same,proliferative effect,"[3]; 3, 10 and 30 μg/ml after 72 hours' incubation",a proliferative effect is evidenced
same,proliferative effect,"[3]; 72 hours, 30 μg/ml",particularly pronounced; also recorded: major proliferative effect
same,proliferative effect,"[3]; 72 hours, 3 and 10 μg/ml",clear proliferative effect
same,proliferative effect compared with the carrier,[3]; short times (24 and 48 hours),no significant effect

# Source: US9610236B2, “Cosmetic use of Queuine” (AMABIOTICS, priority 2013, dated 2017)
